Results reported in ChEMBL document CHEMBL1201862, “PubChem BioAssay data set” (2004).
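Exposure lasted 48 hours, with cells grown in 96-well plates and compounds tested at five concentrations. GI50: concentration for 50% inhibition of growth.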 Activity calls are given as the source filed them. No stated cut-off is given here; in the data, active = GI50 up to about 1.1 µM and inactive = higher.

How the values were obtained:
Experiment in all cases: NCI-60 cell line screen, 48 h
[1] = tested on: DU-145
[2] = tested on: Hs-578T
[3] = tested on: HCC 2998
[4] = tested on: SR
[5] = tested on: HOP-62
[6] = tested on: MDA-MB-231
[7] = tested on: K562
[8] = tested on: PC-3
[9] = tested on: NCI/ADR-RES
[10] = tested on: CAKI-1
[11] = tested on: NCI-H23
[12] = tested on: MCF7
[13] = tested on: SF-295
[14] = tested on: DMS-273
[15] = tested on: DMS-114
[16] = tested on: HOP-18
[17] = tested on: XF498
[18] = tested on: DLD-1
[19] = tested on: HOP-92
[20] = tested on: MDA-MB-435

Measured: GI50

CC(=O)OC(OC(C)=O)n1cc(C=O)c2ccccc21
inactive: [1] > 100 µM | [2] > 100 µM | [3] > 100 µM | [4] > 100 µM | [5] > 100 µM | [6] > 100 µM | [7] > 100 µM | [8] > 100 µM | [9] > 100 µM | [10] > 100 µM | [11] > 100 µM | [12] 25.9 µM | [13] > 100 µM

CC1(C)OP23(NC(=O)OC2(C(F)(F)F)c2ccccc2O3)OC1(C)C (centres undefined)
inactive: [14] > 100 µM | [15] > 100 µM | [7] > 100 µM | [16] > 100 µM | [17] > 100 µM | [11] > 100 µM | [18] > 100 µM | [13] > 100 µM

C[N+](C)([O-])CCOc1cc2c(c3ccccc13)-c1ccccc1C2=O
inactive: [14] 16.3 µM | [15] 7.83 µM | [3] 13.7 µM | [19] 7.66 µM | [5] 14.2 µM | [7] 15.8 µM | [16] 29.1 µM | [17] 16.4 µM | [9] 14.3 µM | [10] 21.5 µM | [11] 21.5 µM | [18] 17 µM | [12] 11.7 µM | [13] 4.63 µM

CC(=O)C1CC[C@@H]2[C@H](CC[C@]3(C)[C@@H](O)CC[C@@H]23)[C@H]1C(=O)O (some centres undefined)
inactive: [2] 74.1 µM | [3] > 100 µM | [4] > 100 µM | [19] > 100 µM | [5] > 100 µM | [6] > 100 µM | [7] > 100 µM | [8] > 100 µM | [9] > 100 µM | [10] > 100 µM | [11] > 100 µM | [20] > 100 µM | [12] > 100 µM | [13] > 100 µM

CN(C)CCCn1c(-c2cc(C(C)(C)C)c(O)c(C(C)(C)C)c2)cs/c1=N\c1ccccc1
inactive: [3] 1.85 µM | [19] 2.26 µM | [5] 1.89 µM | [6] 2.34 µM | [8] 1.87 µM | [9] 1.79 µM | [10] 17.8 µM | [11] 1.68 µM | [20] 2.34 µM | [13] 1.79 µM

CN(C)C(=S)/N=c1\ssc(=S)n1C
inactive: [14] > 100 µM | [15] > 100 µM | [3] > 100 µM | [4] > 100 µM | [19] > 100 µM | [5] > 100 µM | [7] > 100 µM | [16] > 100 µM | [17] > 100 µM | [10] > 100 µM | [11] > 100 µM | [18] > 100 µM | [13] > 100 µM

O=[N+]([O-])c1ccc2[nH]c3c(-c4ccccc4)nccc3c2c1
inactive: [14] 11.9 µM | [15] 18.9 µM | [3] 19.5 µM | [19] 16.3 µM | [5] 14.7 µM | [7] 1.71 µM | [16] 18 µM | [17] 29.4 µM | [9] 16 µM | [11] 32.1 µM | [18] 3.73 µM | [12] 24.8 µM | [13] 18 µM

CN(/N=C1\C(=O)Nc2ccccc21)c1ccccc1
inactive: [1] > 100 µM | [2] 29.6 µM | [3] > 100 µM | [4] 94 µM | [19] 22.5 µM | [5] 49.7 µM | [6] 9.4 µM | [7] > 100 µM | [8] 45.4 µM | [10] 22.1 µM | [11] 74.6 µM | [20] > 100 µM | [12] 15.3 µM | [13] 40.7 µM

C[Si](C)(C)/C=C/CN1C(=O)CCC1=O
inactive: [14] > 100 µM | [15] > 100 µM | [3] > 100 µM | [4] > 100 µM | [19] > 100 µM | [7] > 100 µM | [16] 40.1 µM | [17] > 100 µM | [11] > 100 µM | [18] > 100 µM

COc1cc(C2C(C(=O)O)=C(CO)Oc3cc4c(cc32)OCO4)cc(OC)c1O (centres undefined)
inactive: [14] > 100 µM | [15] > 100 µM | [19] > 100 µM | [5] > 100 µM | [7] > 100 µM | [16] > 100 µM | [10] > 100 µM | [18] > 100 µM | [13] > 100 µM

COC(=O)c1cn(CC(O)CCl)nn1 (centres undefined)
inactive: [1] > 100 µM | [2] > 100 µM | [3] > 100 µM | [19] > 100 µM | [5] > 100 µM | [6] > 100 µM | [7] > 100 µM | [8] > 100 µM | [9] > 100 µM | [10] > 100 µM | [11] > 100 µM | [20] > 100 µM | [12] > 100 µM

CC(=O)OCC1OC(n2c3c(c(-c4ccco4)c(C#N)c2=S)CCC3)C(OC(C)=O)C(OC(C)=O)C1OC(C)=O (centres undefined)
inactive: [1] > 100 µM | [2] 40.9 µM | [3] > 100 µM | [4] 31.6 µM | [19] 15.6 µM | [5] > 100 µM | [7] 21.9 µM | [8] 49.7 µM | [9] 37.8 µM | [10] 55.1 µM | [11] > 100 µM | [20] 68.9 µM | [12] 63.8 µM | [13] > 100 µM

COc1c(Br)cc(CC(N)=O)c(O)c1Br
inactive: [14] > 100 µM | [15] > 100 µM | [3] > 100 µM | [4] > 100 µM | [19] > 100 µM | [5] > 100 µM | [7] > 100 µM | [16] > 100 µM | [17] > 100 µM | [10] > 100 µM | [11] > 100 µM | [18] > 100 µM | [13] > 100 µM

COc1nc(SC)nc2c1cnn2C1OC(C(O)CO)C(OC)C1O (centres undefined)
inactive: [14] > 100 µM | [15] > 80 µM | [3] > 100 µM | [5] > 100 µM | [7] > 100 µM | [16] > 100 µM | [17] > 100 µM | [9] > 100 µM | [11] > 100 µM | [18] > 100 µM | [12] > 62.4 µM | [13] > 100 µM

O=C(O)C12CCCCC1CCCC2 (centres undefined)
inactive: [14] > 100 µM | [15] > 100 µM | [3] > 100 µM | [19] > 100 µM | [5] > 100 µM | [7] > 100 µM | [16] > 100 µM | [17] > 100 µM | [10] > 100 µM | [11] > 100 µM | [18] > 100 µM | [13] > 100 µM

Cc1cc(C)n(C(=C(C(Cl)=C(Cl)Cl)[N+](=O)[O-])n2nc(C)cc2C)n1
inactive: [1] 4.12 µM | [2] 4.66 µM | [3] 3.19 µM | [19] 2.72 µM | [5] 5.04 µM | [6] 7.41 µM | [7] 2.02 µM | [8] 4.43 µM | [9] 3.78 µM | [10] 3.23 µM | [11] 3.23 µM | [20] 2.19 µM | [12] 2.55 µM | [13] 3.85 µM

ClCC1(CCl)COC1
inactive: [1] > 100 µM | [2] > 100 µM | [3] > 100 µM | [4] > 100 µM | [19] > 100 µM | [6] > 100 µM | [7] > 100 µM | [8] > 100 µM | [9] > 100 µM | [11] > 100 µM | [20] > 100 µM | [12] > 100 µM | [13] > 100 µM
